{"source": "patent US4127720A", "about": "“Pyrimido[2,1-a]isoquinoline derivatives having antiallergy activity” (priority 1977, dated 1978)", "data": [{"tested_on": "reagin-mediated rat Passive Cutaneous Anaphylaxis (PCA)", "assay": "Reagin-mediated rat Passive Cutaneous Anaphylaxis (PCA) screening test", "type": "in vivo, Sprague-Dawley rats", "conditions": "iv, 1-5 minutes prior to antigen challenge (DSCG: at the time of antigen challenge), read-out: Rat PCA Test ID50, i.v. (dose of compound that inhibits 50% of the response)", "description": "(§1) The reagin-mediated rat Passive Cutaneous Anaphylaxis (PCA) screening test used to evaluate the present compounds is generally regarded as one of the best animal models for use in predicting the antiallergy activity of test compounds in man. Briefly, the method consists of passive sensitization of skin sites on the test animals with reaginic antibodies followed after 24 hours by administration of the test drug and antigen challenge. The allergic response is measured by use of Evans' blue dye and is evaluated by the spot diameter at the injection side. Details of the test are provided below.\n(§2) A substituted ovalbumin antigen is used both as immunogen and challenging antigen. The antigen is prepared as follows: 500 mg. ovalbumin (EA) and 500 mg. K2 CO3 are dissolved in 25 ml. distilled H2 O and stirred at room temperature for 5 minutes. Five hundred (500) mg. dinitrobenzene sulfonic acid, Na^+ salt, (previously recrystallized from hot absolute ethanol) is then added slowly with continued stirring. The reaction mixture is then immediately placed in the dark and allowed to proceed for 2 hours with constant stirring. After 2 hours the mixture is placed in suitable dialysis tubing and dialyzed against 5 changes (4 liters each) of distilled H2 O at 5° C. After dialysis the product is lyophilized and stored at room temperature in a brown or amber container. The antigen obtained will appear as a light yellow, amorphous solid which is very soluble in water or saline. It is designated as DNP denatured ovalbumin (DNP-d EA).\n(§3) Adult, male Sprague-Dawley rats are used as a source or reagin-rich antisera for the PCA model. Immunization is by a combination of DNP-d EA on Al(OH)3 gel and B. pertussis vaccine. Preparation of the DNP-d EA - gel immunogen is as follows: Dissolve the DNP-d EA in TBS so as to give a concentration of 10 mg./ml. Slowly add 1 ml. of this solution to 10 ml. Al(OH)3 gel (10 mg. solids/ml.) with constant stirring at room temperature. Stir the mixture an additional 30 minutes to insure a uniform adsorption of antigen on gel.\n(§4) The resulting preparation is then used in combination with phase I B. pertussis vaccine to immunize male S/D rats as follows: For each rat administer 0.1 ml. DNP-d EA - gel suspension intramuscularly in each hind leg (200 μg DNP-d EA and 2 mg. gel total dose). Follow these injections by the intraperitoneal administration of 1.0 ml. B. pertussis vaccine (10-20 × 10^9 organisms). The use of light ether anesthesia during this procedure is recommended to insure proper intramuscular and intraperitoneal injections. Nine days following immunization (but no longer than 10) the animals are exsanguinated by cardiac puncture or abdominal aorta cannulation under ether or pentobarbital anesthesia. The collected whole blood is allowed to clot, the serum separated by centrifugation and the individual serum samples stored frozen until assayed for IgE content.\n(§5) Individual serum samples should be screened for reaginic antibody concentration before being pooled with other sera, as not all rats respond to immunization procedures with reagin production. A 1:50 saline dilution of serum from each immunized rat is used for this purpose. Intradermal injections of 0.05 ml. of the diluted sera are made in the shaven backs of two small female recipient rats, 100-120 gms. Several serum samples can be tested simultaneously in recipient animals. After a 24 to 48 hour latent period antigen challenge is accomplished by intravenous administration to each rat of 1 mg. DNP-d EA in 0.5 ml. 0.5% Evans' blue dye in saline. Sera which show positive PCA reactions at the 1:50 dilution, as measured 20 to 30 minutes post-challenge are pooled, dispensed in small aliquots and stored at -70° C. or lower until used. Negative sera may be discarded.\n(§6) The IgE titer of the antisera pool should then be determined. […]", "units": {"ED50": "mg/kg"}, "values": [{"smiles": "O=C(O)c1cnc2c3ccccc3ccn2c1=O", "note": "[2,3, 4-Oxo-4H-pyrimido[2,1-a]isoquinoline-3-carboxylic Acid]", "ED50": 0.33}, {"smiles": "O=C(O)c1cnc2c3ccccc3c(O)cn2c1=O", "note": "[Example 5, 7-Hydroxy-4-oxo-4H-pyrimido[2,1-a]isoquinoline-3-carboxylic Acid]", "ED50": "~1.7"}, {"smiles": "O=c1c(-c2nnn[nH]2)cnc2c3ccccc3ccn12", "note": "[Example 8, 3-(1H-Tetrazol-5-yl)-4H-pyrimido[2,1-a]isoquinol-4-one]", "ED50": 0.04}, {"smiles": "COc1ccc2ccn3c(=O)c(C(=O)O)cnc3c2c1", "note": "[Example 16, 10-Methoxy-4-oxo-4H-pyrimido[2,1-a]isoquinoline-3-carboxylic acid]", "ED50": "~1"}, {"smiles": "CCc1cn2c(=O)c(C(=O)O)cnc2c2ccccc12", "note": "[Example 17A, 7-ethyl-4-oxo-4H-pyrimido[2,1-a]isoquinoline-3-carboxylic Acid]", "ED50": "~0.048"}, {"smiles": "C=CCc1cn2c(=O)c(C(=O)O)cnc2c2cc(OC)ccc12", "note": "[Example 17C, 7-allyl-10-methoxy-4-oxo-4H-pyrimido[2,1-a]isoquinoline-3-carboxylic Acid]", "ED50": "~0.53"}, {"smiles": "CCCc1cn2c(=O)c(C(=O)O)cnc2c2cc(OC)ccc12", "note": "[Example 17D, 10-methoxy-4-oxo-7-propyl-4H-pyrimido[2,1-a]isoquinoline-3-carboxylic Acid]", "ED50": "~0.071"}, {"smiles": "COc1ccc2c(ccn3c(=O)c(C(=O)O)cnc23)c1", "note": "[Example 18, 9-Methoxy-4-oxo-4H-pyrimido[2,1-a]isoquinoline-3-carboxylic Acid]", "ED50": "~1.5"}]}, {"tested_on": "reagin-mediated rat Passive Cutaneous Anaphylaxis (PCA)", "assay": "Reagin-mediated rat Passive Cutaneous Anaphylaxis (PCA) screening test", "type": "in vivo, Sprague-Dawley rats", "conditions": "po, 10 minutes prior to antigen challenge, Table 1, read-out: Rat PCA Test ID50, p.o. (dose of compound that inhibits 50% of the response)", "description": "as §1, §2, §3, §4, §5, §6", "units": {"ED50": "mg/kg"}, "values": [{"smiles": "CCOC(=O)c1cnc2n(c1=O)CC(CC)c1ccccc1-2", "note": "(racemic) [Example 10B, ethyl (±)-7-Ethyl-6,7-dihydro-4-oxo-4H-pyrimido[2,1-a]isoquinoline-3-carboxylate]", "ED50": 0.13}, {"smiles": "C=CCC1Cn2c(ncc(C(=O)OCC)c2=O)-c2cc(OC)ccc21", "note": "(racemic) [Example 10D, ethyl (±)-7-Allyl-6,7-dihydro-10-methoxy-4-oxo-4H-pyrimido[2,1-a]-3-carboxylate]", "ED50": "~0.31"}, {"smiles": "CCC1Cn2c(ncc(C(=O)O)c2=O)-c2ccccc21", "note": "(racemic) [Example 11C, (±)-7-ethyl-6,7-dihydro-4-oxo-4H-pyrimido[2,1-a]isoquinoline-3-carboxylic Acid]", "ED50": 0.048}, {"smiles": "C=CCC1Cn2c(ncc(C(=O)O)c2=O)-c2cc(OC)ccc21", "note": "(racemic) [Example 11E, (±)-7-allyl-6,7-dihydro-10-methoxy-4-oxo-4H-pyrimido[2,1-a]isoquinoline-3-carboxylic Acid]", "ED50": "~0.077"}, {"smiles": "CCOC(=O)c1cnc2n(c1=O)CC(CC(OC)OC)c1ccc(OC)cc1-2", "note": "(racemic) [Example 22 (CH2 CH(OMe)2), Ethyl (±)-6,7-Dihydro-7-(2,2-dimethoxyethyl)-10-methoxy-4-oxo-4H-pyrimido[2,1-a]isoquinoline-3-carboxylate]", "ED50": "~3.3"}, {"smiles": "CCOC(=O)c1cnc2n(c1=O)CC(CC=O)c1ccc(OC)cc1-2", "note": "(racemic) [Example 22 (CH2 CHO), Ethyl (±)-7-Formylmethyl-6,7-dihydro-10-methoxy-4-oxo-4H-pyrimido[2,1-a]isoquinoline-3-carboxylate]", "ED50": "~20"}, {"smiles": "CCC1Cn2c(ncc(-c3nnn[nH]3)c2=O)-c2ccccc21", "note": "(racemic) [Example 23, (±)-7-Ethyl-6,7-dihydro-3-(1H-tetrazol-5-yl)-4H-pyrimido[2,1-a]isoquinol-4-one]", "ED50": 0.1}, {"smiles": "CCOC(=O)c1cnc2n(c1=O)CCc1ccccc1-2", "note": "[Example 6, Ethyl 6,7-Dihydro-4-oxo-4H-pyrimido[2,1-a]isoquinoline-3-carboxylate]", "ED50": 2.3}, {"smiles": "O=C(O)c1cnc2n(c1=O)CCc1ccccc1-2", "note": "[Example 7, 6,7-Dihydro-4-oxo-4H-pyrimido[2,1-a]isoquinoline-3-carboxylic Acid]", "ED50": 7.9}, {"smiles": "CCOC(=O)c1cnc2n(c1=O)CCc1cc(OC)ccc1-2", "note": "[Example 9, Ethyl 6,7-Dihydro-9-methoxy-4-oxo-4H-pyrimido[2,1-a]isoquinoline-3-carboxylate]", "ED50": "~13"}, {"smiles": "CCOC(=O)c1cnc2n(c1=O)CCc1ccc(OC)cc1-2", "note": "[Example 10A, ethyl 6,7-Dihydro-10-methoxy-4-oxo-4H-pyrimido[2,1-a]isoquinoline-3-carboxylate]", "ED50": "~0.81"}, {"smiles": "CCOC(=O)c1cnc2n(c1=O)CCc1cc(OC)c(OC)cc1-2", "note": "[Example 10C, ethyl 6,7-Dihydro-9,10-dimethoxy-4-oxo-4H-pyrimido[2,1-a]isoquinoline-3-carboxylate]", "ED50": "~0.37"}, {"smiles": "COc1ccc2c(c1)CCn1c-2ncc(C(=O)O)c1=O", "note": "[Example 11A, 6,7-dihydro-9-methoxy-4-oxo-4H-pyrimido[2,1-a]isoquinoline-3-carboxylic Acid]", "ED50": 2.6}, {"smiles": "COc1ccc2c(c1)-c1ncc(C(=O)O)c(=O)n1CC2", "note": "[Example 11B, 6,7-dihydro-10-methoxy-4-oxo-4H-pyrimido[2,1-a]isoquinoline-3-carboxylicAcid]", "ED50": "~0.48"}, {"smiles": "COc1cc2c(cc1OC)-c1ncc(C(=O)O)c(=O)n1CC2", "note": "[Example 11D, 6,7-dihydro-9,10-dimethoxy-4-oxo-4H-pyrimido[2,1-a]isoquinoline-3-carboxylic Acid]", "ED50": "~0.31"}, {"smiles": "O=C(O)c1cnc2n(c1=O)CCc1ccc(O)cc1-2", "note": "[Example 19, 6,7-Dihydro-10-hydroxy-4-oxo-4H-pyrimido[2,1-a]isoquinoline-3-carboxylic Acid]", "ED50": "~1.2"}, {"smiles": "O=C(O)c1cnc2n(c1=O)CCc1cc(O)c(O)cc1-2", "note": "[Example 20, 6,7-Dihydro-9,10-dihydroxy-4-oxo-4H-pyrimido[2,1-a]isoquinoline-3-carboxylic Acid]", "ED50": "~0.077"}]}, {"tested_on": "reagin-mediated rat Passive Cutaneous Anaphylaxis (PCA)", "assay": "Reagin-mediated rat Passive Cutaneous Anaphylaxis (PCA) screening test", "type": "in vivo, Sprague-Dawley rats", "conditions": "po, 10 minutes prior to antigen challenge, Table II and its footnote, read-out: Rat PCA Test ID50, p.o. (dose of compound that inhibits 50% of the response)", "description": "as §1, §2, §3, §4, §5, §6", "units": {"ED50": "mg/kg"}, "values": [{"smiles": "CCOC(=O)c1cnc2c3ccccc3ccn2c1=O", "note": "[Example 1, Ethyl 4-Oxo-4H-pyrimido[2,1-a]isoquinoline-3-carboxylate]", "ED50": "> 5"}, {"smiles": "CCOC(=O)c1cnc2c3ccccc3ccn2c1=N", "note": "[Example 3A, Ethyl 4-Imino-4H-pyrimido[2,1-a]isoquinoline-3-carboxylate]", "ED50": "~0.19"}, {"smiles": "CCOC(=O)c1cnc2c3ccc(OC)cc3ccn2c1=O", "note": "[Example 12, Ethyl 9-Methoxy-4-oxo-4H-pyrimido[2,1-a]isoquinoline-3-carboxylate]", "ED50": "~31"}, {"smiles": "CCOC(=O)c1cnc2c3cc(OC)ccc3ccn2c1=O", "note": "[Example 13A, ethyl 10-Methoxy-4-oxo-4H-pyrimido[2,1-a]isoquinoline-3-carboxylate]", "ED50": "~0.9"}, {"smiles": "CCOC(=O)c1cnc2c3ccccc3c(CC)cn2c1=O", "note": "[Example 13B, ethyl 7-Ethyl-4-oxo-4H-pyrimido[2,1-a]isoquinoline-3-carboxylate]", "ED50": "~5"}, {"smiles": "CCOC(=O)c1cnc2c3cc(OC)c(OC)cc3ccn2c1=O", "note": "[Example 13C, ethyl 9,10-Dimethoxy-4-oxo-4H-pyrimido[2,1-a]isoquinoline-3-carboxylate]", "ED50": "~2.63"}, {"smiles": "C=CCc1cn2c(=O)c(C(=O)OCC)cnc2c2cc(OC)ccc12", "note": "[Example 14, Ethyl 7-Allyl-10-methoxy-4-oxo-4H-pyrimido[2,1-a]isoquinoline-3-carboxylate]", "ED50": "> 5"}, {"smiles": "CCCc1cn2c(=O)c(C(=O)OCC)cnc2c2cc(OC)ccc12", "note": "[Example 15, Ethyl 10-Methoxy-4-oxo-7-propyl-4H-pyrimido[2,1-a]isoquinoline-3-carboxylate]", "ED50": "~16"}, {"smiles": "COc1cc2ccn3c(=O)c(C(=O)O)cnc3c2cc1OC", "note": "[Example 17B, 9,10-dimethoxy-4-oxo-4H-pyrimido[2,1-a]isoquinoline-3-carboxylic Acid]", "ED50": "~0.01"}]}]}
